Counter-ions that a name gives are not always drawn.
| melting point | SMILES |
| --- | --- |
| 210 to 211 °C | CN(C)C1CCc2cccc(C3(O)CCCCC3)c2C1 (stereo not drawn) (as salt: hydrobromid) (hydrate or solvate) |
| 158 to 159 °C | CN(C)C1CCc2cccc(C3CCCC3)c2C1 (stereo not drawn) (as salt: hydrochloride) |
| 147 to 148 °C | COCCOCc1cccc2c1CC(N(C)C)CC2 (stereo not drawn) (as salt: hydrochloride) |
| 186 to 187 °C | CN(C)C1CCc2cccc(C3(O)CCCCCC3)c2C1 (stereo not drawn) (as salt: hydrobromid) (hydrate or solvate) |
| 158 to 160 °C | C/C=C(\CC)c1cccc2c1C[C@H](N(C)C)CC2 (as salt: hydrochloride) |
| 180 to 181 °C (dec.) | Cc1cccc2c1C[C@H](N(C)C)CC2 (as salt: hydrochloride) |
